Like-named read-outs stand apart in the source and are kept apart here.
Assays:
purified human BChE = target: T1, purified human BChE (Homo sapiens, UniProt P06276); experiment: biochemical; format: biochemical; settings: for Ki: human BChE, Ki ± SE, at least three experiments, ATCh substrate
T1 construct: gift of Dr Florian Nachon, Armed Forces Biomedical Research Institute, Brétigny-sur-Orge, France
Protocol: (§1) Acetylthiocholine (ATCh) and 5,5’-dithiobis(2-nitrobenzoic acid) (DTNB) were purchased from Sigma Chemical Co., St. Louis, MO, USA. ATCh was dissolved in water and DTNB in 0.1 M sodium phosphate buffer (pH 7.4). […] Purified human BChE and recombinant human AChE were kindly provided by Dr Florian Nachon (Département de Toxicologie, Armed Forces Biomedical Research Institute, Brétigny-sur-Orge, France). The enzymes were diluted in a phosphate sodium buffer 0.1 M (pH 7.4) containing 0.01% BSA.
(§2) Cholinesterase activity measurements, evaluation of Ki (dissociation constants of enzyme−inhibitor complex) and Ks constants (dissociation constants of enzyme−substrate complex) were performed following procedures described previously. Briefly, enzyme activity was measured spectrophotometrically using a slightly modified Ellman method. […] At least three concentrations of inhibitors for each substrate concentration were used in at least three experiments.
(§3) The y-intercept determines the enzyme–inhibitor dissociation constants (Ki), while the x-intercept determines the enzyme–substrate dissociation constant, KS [57].

[1] = Cytotoxicity MTS assay, HEK293; format: cell-based; settings: 24 h exposure
Protocol: (§4) The human hepatocyte carcinoma HepG2 (ECACC 85011430), human embryo kidney HEK293 (ECACC 85120602) and human neuroblastoma SH-SY5Y (ECACC 94030304) cell lines were obtained from the certified cell-bank European Collection of Authenticated Cell Cultures (ECACC) through Sigma-Aldrich (Steinheim, Germany). HepG2 and HEK293 cells were grown in EMEM and SH-SY5Y in DMEM-F12, as described previously, and cell cultivation and maintenance were conducted according to standard protocol. All media and supplements were purchased from Sigma-Aldrich, Steinheim, Germany.
(§5) The cytotoxic profiles of tested compounds were determined by measuring the succinate dehydrogenase mitochondrial activity of exposed cells. The commercially available MTS detection reagent assay (CellTiter 96® AQueous One Solution Cell Proliferation Assay, Promega, Madison, WI, USA) was used. The procedure followed a previously described protocol. Cells were exposed to compounds in a concentration range of 0.01–1000 µM for 24 h. DMSO (20%) was used as positive control to validate the method. After desired time of incubation at 37 °C in a 5% CO2 atmosphere, cells were washed with PBS buffer and 100 µL of EMEM or DMEM medium and 20 µL of MTS were added in each well, incubated up to 1 h after which the absorbance was read at 492 nm on an Infinite M200PRO plate reader (Tecan Austria GmbH, Salzburg, Austria). Data are presented as percentages of the inhibited cells to control untreated cells, i.e., the percentage of cytotoxicity.

recombinant human AChE = target: T2, recombinant human AChE (Homo sapiens, UniProt P22303); experiment: Inhibition of human AChE (Ellman method, Hunter–Downs Ki); format: biochemical; settings: for Ki: human AChE, Ki ± SE, at least three experiments, ATCh substrate; for SI = Ki(BChE)/Ki(AChE): selectivity index, AChE over BChE
T2 construct: gift of Dr Florian Nachon, Armed Forces Biomedical Research Institute, Brétigny-sur-Orge, France
T2 sequence (P22303 32-614): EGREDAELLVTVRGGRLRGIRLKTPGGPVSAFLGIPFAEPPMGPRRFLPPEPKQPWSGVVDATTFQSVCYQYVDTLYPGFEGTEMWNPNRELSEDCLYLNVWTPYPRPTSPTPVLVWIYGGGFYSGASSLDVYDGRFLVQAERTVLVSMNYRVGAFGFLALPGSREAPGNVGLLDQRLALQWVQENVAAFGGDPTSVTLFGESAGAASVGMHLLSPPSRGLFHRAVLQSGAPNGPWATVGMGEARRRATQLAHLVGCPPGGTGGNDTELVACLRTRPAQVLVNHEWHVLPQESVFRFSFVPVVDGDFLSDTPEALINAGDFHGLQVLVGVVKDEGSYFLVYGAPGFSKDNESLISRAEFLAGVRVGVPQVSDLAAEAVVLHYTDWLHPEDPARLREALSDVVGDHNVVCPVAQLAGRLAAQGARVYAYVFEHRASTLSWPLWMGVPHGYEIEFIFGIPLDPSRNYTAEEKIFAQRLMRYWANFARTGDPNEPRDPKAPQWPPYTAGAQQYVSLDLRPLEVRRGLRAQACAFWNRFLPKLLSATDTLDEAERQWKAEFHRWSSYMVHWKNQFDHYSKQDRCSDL
Protocol: as §1, §2, §3

[2] = Cytotoxicity MTS assay, SH-SY5Y; format: cell-based; settings: 24 h exposure
Protocol: HepG2 and HEK293 cells were grown in EMEM and SH-SY5Y in DMEM-F12, as described previously, and cell cultivation and maintenance were conducted according to standard protocol. All media and supplements were purchased from Sigma-Aldrich, Steinheim, Germany.
as §5

[3] = Cytotoxicity MTS assay, HepG2; format: cell-based; settings: 24 h exposure
Protocol: as §4, §5

[4] = FRAP assay (ferric reducing antioxidant power); settings: 10 µM compound
Protocol: The in vitro antioxidant activity of tested compounds was evaluated using the FRAP assay following a procedure described earlier. […] Trolox and butylated hydroxytoluene (BHT) were used as standard antioxidants. The absorbance was recorded at 593 nm using a microplate reader (SpectraMax iD3, Molecular Devices, San Jose, CA, USA) against a blank. All measurements were taken in three independent triplicates in at least three independent experiments. FRAP values, denominating the reduction of ferric-tripyridyltriazine (Fe^3+-TPTZ) to ferrous tripyridyltriazine (Fe^2+-TPTZ) by the tested compounds, were calculated on the basis of a standard curve obtained using […].

[5] = system: HepG2, HEK293 and SH-SY5Y; experiment: Cytotoxicity MTS assay, over all three cell lines; format: cell-based, human; settings: 24 h exposure
Protocol: as §4, §5

[6] = Cytotoxicity MTS assay, over all three cell lines; format: cell-based, human; settings: human, HEK293 and SH-SY5Y cells; HepG2, HEK293, SH-SY5Y; 24 h exposure
Protocol: as §4, §5

[7] = human, SH-SY5Y cells, IC50 ± SE

T1 sequence (P06276 29-602): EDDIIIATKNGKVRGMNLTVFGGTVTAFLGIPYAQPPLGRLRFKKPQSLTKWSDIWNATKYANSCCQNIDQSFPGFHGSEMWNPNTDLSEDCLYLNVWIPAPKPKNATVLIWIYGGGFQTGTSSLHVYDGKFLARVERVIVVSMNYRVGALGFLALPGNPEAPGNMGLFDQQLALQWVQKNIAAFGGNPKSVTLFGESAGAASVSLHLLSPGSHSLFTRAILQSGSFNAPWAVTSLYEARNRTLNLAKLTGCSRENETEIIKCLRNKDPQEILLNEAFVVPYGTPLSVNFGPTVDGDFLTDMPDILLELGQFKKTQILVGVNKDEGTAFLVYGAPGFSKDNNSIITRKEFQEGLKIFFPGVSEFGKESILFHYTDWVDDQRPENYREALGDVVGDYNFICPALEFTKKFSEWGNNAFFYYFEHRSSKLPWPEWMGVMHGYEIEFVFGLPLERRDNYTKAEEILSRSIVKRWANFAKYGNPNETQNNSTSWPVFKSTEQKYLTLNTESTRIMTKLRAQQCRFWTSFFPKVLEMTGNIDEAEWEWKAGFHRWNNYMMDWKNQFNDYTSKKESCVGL

Structure (SMILES)	Ki (purified human BChE; Ki BChE) [µM]	IC50 at 24 h ([1]; in mM) [mM]	Ki (recombinant human AChE) [µM]	IC50 at 24 h ([2]; IC50 ± SE) [mM]	IC50 at 24 h ([3]; in mM) [mM]	Ki (purified human BChE; read-out: Ki BChE) [µM]	FRAP value / reducing power compared with Trolox and BHT [4]	IC50 at 24 h ([1]; human, HEK293 cells, IC50 ± SE) [mM]	SI = Ki(BChE)/Ki(AChE) (recombinant human AChE)	IC50 at 24 h [2, 7] [mM]	IC50 at 24 h ([3]; human, HepG2 cells, IC50 ± SE) [mM]	IC50 at 24 h ([1]; human, HEK293 cells, in mM) [mM]	Toxicity to any tested cell type [5]	IC50 at 24 h ([2]; human, SH-SY5Y cells, in mM) [mM]	IC50 at 24 h ([3]; human, HepG2 cells, in mM) [mM]	IC50 at 24 h [6] [µM]	FRAP value relative to the FRAP value for BHT [4]	Selectivity to BChE (purified human BChE; BChE over AChE)	AChE inhibition potency, times lower compared to 2 (recombinant human AChE; fold, compared to compound 2)
CCN(CC)Cc1cc(Nc2ccnc3cc(Cl)ccc23)ccc1O [AMQ, Amodiaquine, reference compound]	9.1 ± 0.7	≥ 1	0.046 ± 0.001	0.134 ± 0.036	≥ 1														
CCN(CC)Cc1cc(Nc2ccnc3cc(F)ccc23)ccc1O [Compound 1]			0.17 ± 0.01			13 ± 1	not more than 50% lower than those of either Trolox or BHT	0.09 ± 0.022	77	0.09 ± 0.01	0.219 ± 0.028								
CCN(CC)Cc1cc(Nc2ccnc3cc(C(F)(F)F)ccc23)ccc1O [Compound 2]			0.075 ± 0.003			7.3 ± 0.8			97			≥ 1	not toxic to any tested cell type	≥ 1	≥ 1				
CCN(CC)Cc1cc(Nc2ccnc3cc(C#N)ccc23)ccc1O [Compound 3]			0.078 ± 0.004			19 ± 1	not more than 50% lower than those of either Trolox or BHT	0.103 ± 0.003		0.098 ± 0.003	0.471 ± 0.019					≥ 100			
CCN(CC)Cc1cc(Nc2ccnc3cc([N+](=O)[O-])ccc23)ccc1O [Compound 4]			0.084 ± 0.003			14 ± 1		0.033 ± 0.003		0.026 ± 0.004	0.039 ± 0.006								
CCN(CC)Cc1cc(Nc2ccnc3cc(OC)ccc23)ccc1O [Compound 5]			0.025 ± 0.001			7.6 ± 0.4	not more than 50% lower than those of either Trolox or BHT	0.037 ± 0.011	300	0.036 ± 0.005	0.1 ± 0.01						higher than 50%		
CCN(CC)Cc1cc(Nc2ccnc3ccccc23)ccc1O [Compound 6]			0.23 ± 0.01			5.9 ± 0.8		0.35 ± 0.04	26	0.453 ± 0.012					≥ 1	≥ 100	higher than 50%		
CCN(CC)Cc1cc(Nc2ccnc3ccc(F)cc23)ccc1O [Compound 7]			0.051 ± 0.002			11 ± 1	not more than 50% lower than those of either Trolox or BHT	0.159 ± 0.041		0.181 ± 0.041	0.529 ± 0.029					≥ 100			
CCN(CC)Cc1cc(Nc2ccnc3c(F)cccc23)ccc1O [Compound 8]			0.51 ± 0.03			5.4 ± 0.5		0.134 ± 0.047	11	0.085 ± 0.005					≥ 1				
CCN(CC)Cc1cc(Nc2ccnc3ccc(C(F)(F)F)cc23)ccc1O [Compound 9]			0.093 ± 0.003			14 ± 1						≥ 1	not toxic to any tested cell type	≥ 1	≥ 1	≥ 100			
CCN(CC)Cc1cc(Nc2ccnc3c(C(F)(F)F)cccc23)ccc1O [Compound 10]			1.2 ± 0.1			20 ± 1		0.087 ± 0.033	17	0.088 ± 0.008					≥ 1				
CCN(CC)Cc1cc(Nc2cc(C(F)(F)F)nc3ccccc23)ccc1O [Compound 11]			7.6 ± 0.3			1.7 ± 0.1	not more than 50% lower than those of either Trolox or BHT	0.025 ± 0.004	0.22	0.035 ± 0.005	0.232 ± 0.068							about five times more selective to BChE	100
CCN(CC)Cc1cc(Nc2ccnc3ccc(C#N)cc23)ccc1O [Compound 12]			0.19 ± 0.01			21 ± 1		0.088 ± 0.031		0.092 ± 0.017	0.276 ± 0.046								
CCN(CC)Cc1cc(Nc2ccnc3cccc(C(=O)O)c23)ccc1O [Compound 13]			1.3 ± 0.1			16 ± 1		0.103 ± 0.008	12	0.148 ± 0.017	0.546 ± 0.046					≥ 100			
CCN(CCO)Cc1cc(Nc2ccnc3cc(Cl)ccc23)ccc1O [Compound 14]			0.11			6.8 ± 0.3	greater potency than both Trolox and BHT		62			≥ 1	not toxic to any tested cell type	≥ 1	≥ 1	≥ 100	higher than 50%		

Source: PMC11596630 (Molecules, 2024)
